Reference: article PMC5440690, “Sirt1 carboxyl-domain is an ATP-repressible domain that is transferrable to other proteins” (Nature Communications, 2017)

What was measured:
[1] = target: T1, 2A Sirt1 (Mus musculus, UniProt Q923E4, S649A/S651A); test: deacetylation of [3H]Ac-H4, inhibition kinetics (Kii); weakened ATP-agarose binding; format: biochemical
T1 construct: full-length recombinant 2A Sirt1
T1 sequence (Q923E4 1-737 S649A/S651A): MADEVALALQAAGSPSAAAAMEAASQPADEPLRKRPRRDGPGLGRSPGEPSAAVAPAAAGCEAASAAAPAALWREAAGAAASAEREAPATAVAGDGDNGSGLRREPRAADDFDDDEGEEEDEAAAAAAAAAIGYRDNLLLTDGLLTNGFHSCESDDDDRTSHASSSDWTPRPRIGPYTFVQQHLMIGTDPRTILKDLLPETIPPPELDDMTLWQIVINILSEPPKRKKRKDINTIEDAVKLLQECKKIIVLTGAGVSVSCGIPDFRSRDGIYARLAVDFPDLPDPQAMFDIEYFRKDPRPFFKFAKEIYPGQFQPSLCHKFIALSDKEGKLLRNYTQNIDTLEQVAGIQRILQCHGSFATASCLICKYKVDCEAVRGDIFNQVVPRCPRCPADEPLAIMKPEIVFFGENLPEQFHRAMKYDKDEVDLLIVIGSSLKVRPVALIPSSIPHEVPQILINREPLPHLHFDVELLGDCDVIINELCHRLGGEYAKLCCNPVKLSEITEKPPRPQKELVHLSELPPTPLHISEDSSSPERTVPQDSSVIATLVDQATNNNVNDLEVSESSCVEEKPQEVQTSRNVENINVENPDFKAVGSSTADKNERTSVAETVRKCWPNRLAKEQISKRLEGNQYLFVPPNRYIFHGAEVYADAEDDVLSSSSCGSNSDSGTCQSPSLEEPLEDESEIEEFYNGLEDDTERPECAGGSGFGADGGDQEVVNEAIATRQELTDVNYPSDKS

[2] = target: T2, Sirt1 (Mus musculus, UniProt Q923E4); test: gel-filtration (spin column) binding with [γ-32P]ATP; also ATP-agarose pull-down with free ATP competition, and enzyme inhibition
T2 construct: full-length recombinant Sirt1
T2 sequence (Q923E4 2-737): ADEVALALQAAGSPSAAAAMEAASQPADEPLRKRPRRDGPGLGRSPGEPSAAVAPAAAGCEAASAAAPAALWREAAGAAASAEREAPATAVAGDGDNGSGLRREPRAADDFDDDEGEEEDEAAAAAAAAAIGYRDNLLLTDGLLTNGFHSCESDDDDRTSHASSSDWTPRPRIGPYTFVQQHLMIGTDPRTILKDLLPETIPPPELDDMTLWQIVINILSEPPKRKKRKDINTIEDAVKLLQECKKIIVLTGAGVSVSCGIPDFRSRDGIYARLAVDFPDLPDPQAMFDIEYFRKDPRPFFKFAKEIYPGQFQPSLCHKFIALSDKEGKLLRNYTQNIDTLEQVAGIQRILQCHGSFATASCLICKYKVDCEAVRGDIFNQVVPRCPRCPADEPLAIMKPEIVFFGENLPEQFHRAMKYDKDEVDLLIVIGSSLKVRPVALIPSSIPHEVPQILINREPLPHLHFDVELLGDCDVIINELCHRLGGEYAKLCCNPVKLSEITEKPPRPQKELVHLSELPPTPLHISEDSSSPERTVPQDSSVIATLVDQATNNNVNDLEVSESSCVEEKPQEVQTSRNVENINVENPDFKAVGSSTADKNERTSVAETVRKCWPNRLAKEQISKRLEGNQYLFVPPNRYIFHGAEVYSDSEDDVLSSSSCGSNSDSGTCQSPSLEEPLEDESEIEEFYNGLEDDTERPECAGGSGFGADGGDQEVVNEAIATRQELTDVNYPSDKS

**Q.** With `Nc1ncnc2c1ncn2[C@@H]1O[C@H](COP(=O)(O)OP(=O)(O)OP(=O)(O)O)[C@@H](O)[C@H]1O` [ATP] as the molecule, how does the Ki [1] read?
**A.** 6.45 ± 0.51 mM

**Q.** And the Kd [2]?
**A.** ~4.6 mM
